From US10519177B2, “Heterocyclic compounds and uses thereof” (Plexxikon Inc., priority 2013, dated 2019)
Read-outs that look alike come from different tables or passages of the source.

What was measured:
bromodomain = assay: at least one of the bromodomain cell assays of Example 57; assay type: cell-based; conditions: at least one of the bromodomain cell assays described in Example 57; read-out: IC50 in at least one of the bromodomain cell assays
MV-4-11 cells = assay: Oncology cell growth assay MV-4-11 (CellTiter Glo); assay type: cell-based; conditions: Homo sapiens, MV4-11, 72 h, read-out: Cell activity (IC50 μM) MV-4-11 3d-Growth
Procedure, shortened: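 MV-4-11 AML cells (MLL-AF4), 3000 per well, exposed to 8-point 1:3 compound titration from 10 μM top concentration (0.2% DMSO) for 72 h. Viability by CellTiter Glo luminescence, normalized to DMSO controls; pIC50 from four-parameter curve fit.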

BRD4-BD12 (1-477) = BRD4-BD12 (1-477) (Homo sapiens (Human), UniProt O60885); assay: Alphascreen binding assay BRD4-BD12; conditions: BRD4(1 2) H4; read-out: Biochemical activity (IC50 μM) BRD4(1 2) H4
Procedure, shortened: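 First, compound was preincubated 1 h at room temperature with the His-tagged BRD4 protein (BD1 44-164 or tandem BD12 1-477) and acetylated H4 peptide. Next, donor and acceptor beads were added at 7.5 μg/ml final. After 30 min, AlphaScreen emission was recorded.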

SMILES	IC50 (bromodomain) [µM]	IC50 (MV-4-11 cells; MV-4-11, 3d growth) [µM]	IC50 (BRD4-BD12 (1-477)) [µM]	IC50 (MV-4-11 cells) [µM]
Cc1noc(C)c1-c1cnc2c(-c3csc(C(=O)O)c3)cn(CC3(F)CCCCC3)c2c1 [P-0477, 4-[6-(3,5-dimethylisoxazol-4-yl)-1-[(1-fluorocyclohexyl)methyl]pyrrolo[3,2-b]pyridin-3-yl]thiophene-2-carboxylic acid]	< 10	1 to 10	< 1	–
Cc1noc(C)c1-c1cnc2c(-c3cccc(S(N)(=O)=O)c3)cn(CC3(F)CCCCC3)c2c1 [P-0475, 3-[6-(3,5-dimethylisoxazol-4-yl)-1-[(1-fluorocyclohexyl)methyl]pyrrolo[3,2-b]pyridin-3-yl]benzenesulfonamide]	< 10	< 1	< 1	–
CCOC(=O)c1ccc(-c2cn(CC3CCC(F)(F)CC3)c3cc(-c4c(C)noc4C)cnc23)cc1 [P-0537, ethyl 4-[1-[(4,4-difluorocyclohexyl)methyl]-6-(3,5-dimethylisoxazol-4-yl)pyrrolo[3,2-b]pyridin-3-yl]benzoate]	< 10	< 1	< 1	–
Cc1noc(C)c1-c1cnc2c(-c3ccc([N+](=O)[O-])cc3)cn(CC3CCC(F)(F)CC3)c2c1 [P-0598, 4-[1-[(4,4-difluorocyclohexyl)methyl]-3-(4-nitrophenyl)pyrrolo[3,2-b]pyridin-6-yl]-3,5-dimethyl-isoxazole]	< 10	< 1	< 1	–
COC(=O)Cc1ccc(-c2cn([C@@H](C)c3ccccn3)c3cc(-c4c(C)noc4C)cnc23)cc1 [P-0565, methyl 2-[4-[6-(3,5-dimethylisoxazol-4-yl)-1-[(1S)-1-(2-pyridyl)ethyl]pyrrolo[3,2-b]pyridin-3-yl]phenyl]acetate]	< 10	< 1	< 1	–
COc1ccc(-c2cn(CC3CCC(F)(F)CC3)c3cc(-c4c(C)noc4C)cnc23)cn1 [P-0390, 4-[1-[(4,4-difluorocyclohexyl)methyl]-3-(6-methoxy-3-pyridyl)pyrrolo[3,2-b]pyridin-6-yl]-3,5-dimethyl-isoxazole]	< 10	–	< 1	< 1
CNC(=O)Nc1ccc(-c2cn([C@@H](C)c3ccccn3)c3cc(-c4c(C)noc4C)cnc23)cc1 [P-0563, 1-[4-[6-(3,5-dimethylisoxazol-4-yl)-1-[(1S)-1-(2-pyridyl)ethyl]pyrrolo[3,2-b]pyridin-3-yl]phenyl]-3-methyl-urea]	< 10	< 1	< 1	–
Cc1noc(C)c1-c1cnc2c(-c3ccc(CC(=O)O)cc3)cn([C@@H](C)c3ccccn3)c2c1 [P-0558, 2-[4-[6-(3,5-dimethylisoxazol-4-yl)-1-[(1S)-1-(2-pyridyl)ethyl]pyrrolo[3,2-b]pyridin-3-yl]phenyl]acetic acid]	< 10	< 1	< 1	–
Cc1noc(C)c1-c1cnc2c(-c3ccc(C(=O)O)cc3)cn(Cc3ccccc3)c2c1 [P-0375, 4-[1-benzyl-6-(3,5-dimethylisoxazol-4-yl)pyrrolo[3,2-b]pyridin-3-yl]benzoic acid]	< 10	–	< 1	< 1
COC(=O)c1ccc(-c2cn(C(c3ccccn3)c3ccccn3)c3cc(-c4c(C)noc4C)cnc23)cc1 [P-0574, methyl 4-[1-[bis(2-pyridyl)methyl]-6-(3,5-dimethylisoxazol-4-yl)pyrrolo[3,2-b]pyridin-3-yl]benzoate]	< 10	< 1	< 1	–
Cc1noc(C)c1-c1cnc2c(-c3ccc(C(=O)O)cc3)cn(C(c3ccccn3)c3ccccn3)c2c1 [P-0576, 4-[1-[bis(2-pyridyl)methyl]-6-(3,5-dimethylisoxazol-4-yl)pyrrolo[3,2-b]pyridin-3-yl]benzoic acid]	< 10	< 1	< 1	–
Cc1noc(C)c1-c1cnc2c(-c3ccc(C#N)cc3)cn(CC3CCC(F)(F)CC3)c2c1 [P-0434, 4-[1-[(4,4-difluorocyclohexyl)methyl]-6-(3,5-dimethylisoxazol-4-yl)pyrrolo[3,2-b]pyridin-3-yl]benzonitrile]	< 10	< 1	< 1	–
CC[C@H](c1ccccc1)n1cc(-c2ccc(C(=O)OC)cc2)c2ncc(-c3c(C)noc3C)cc21 [P-0569, methyl 4-[6-(3,5-dimethylisoxazol-4-yl)-1-[(1R)-1-phenylpropyl]pyrrolo[3,2-b]pyridin-3-yl]benzoate]	< 10	< 1	< 1	–
Cc1noc(C)c1-c1cnc2c(-c3ccc(C(C)(C)C)cc3)cn(CC3CCC(F)(F)CC3)c2c1 [P-0802, 4-[3-(4-tert-butylphenyl)-1-[(4,4-difluorocyclohexyl)methyl]pyrrolo[3,2-b]pyridin-6-yl]-3,5-dimethyl-isoxazole]	< 10	1 to 10	< 1	–
Cc1noc(C)c1-c1cnc2c(I)cn(CC3CCC4(CC3)CC4)c2c1 [P-0580, 4-[3-iodo-1-(spiro[2.5]octan-6-ylmethyl)pyrrolo[3,2-b]pyridin-6-yl]-3,5-dimethyl-isoxazole]	< 10	< 1	< 1	–
COc1cc(-c2cn(CC3(C)CCOCC3)c3cc(-c4c(C)noc4C)cnc23)ccc1C(=O)O [P-0775, 4-[6-(3,5-dimethylisoxazol-4-yl)-1-[(4-methyltetrahydrpyran-4-yl)methyl]pyrrolo[3,2-b]pyridin-3-yl]-2-methoxy-benzoic acid]	< 10	< 1	< 1	–
COC(=O)c1ccc(-c2cn(CC3(F)CCC(F)(F)CC3)c3cc(-c4c(C)noc4C)cnc23)cn1 [P-0454, methyl 5-[6-(3,5-dimethylisoxazol-4-yl)-1-[(1,4,4-trifluorocyclohexyl)methyl]pyrrolo[3,2-b]pyridin-3-yl]pyridine-2-carboxylate]	< 10	< 1	< 1	–
[2H]C([2H])(C1CCC(F)(F)CC1)n1cc(-c2cnn(C)c2C)c2ncc(-c3c(C)noc3C)cc21 [P-0338, 4-[1-[dideuterio-(4,4-difluorocyclohexyl)methyl]-3-(1,5-dimethylpyrazol-4-yl)pyrrolo[3,2-b]pyridin-6-yl]-3,5-dimethyl-isoxazole]	< 10	–	< 1	< 1
Cc1noc(C)c1-c1cnc2c(-c3ccc(C(=O)O)cc3)cn(C(C)(C)c3ccccn3)c2c1 [P-0548, 4-[6-(3,5-dimethylisoxazol-4-yl)-1-[1-methyl-1-(2-pyridyl)ethyl]pyrrolo[3,2-b]pyridin-3-yl]benzoic acid]	< 10	< 1	< 1	–
COCc1ccc(-c2cn(CC3CCCCC3)c3cc(-c4c(C)noc4C)cnc23)cc1 [P-0705, 4-[1-(cyclohexylmethyl)-3-[4-(methoxymethyl)phenyl]pyrrolo[3,2-b]pyridin-6-yl]-3,5-dimethyl-isoxazole]	< 10	< 1	< 1	–
COC(=O)Cc1ccc(-c2cn(CC3CCCC3)c3cc(-c4c(C)noc4C)cnc23)cc1 [P-0588, methyl 2-[4-[1-(cyclopentylmethyl)-6-(3,5-dimethylisoxazol-4-yl)pyrrolo[3,2-b]pyridin-3-yl]phenyl]acetate]	< 10	< 1	< 1	–
